“And” between values parts separate entries of the source, which are not always exact repeats. Equal entries are not always repeated. “Also recorded” adds a separate entry of the source.
What was measured:
Type in all cases: in vivo
C3H/HeN mice [1] = assay: Hair growth after topical application to clipped dorsal skin, macroscopic score (Example 1); parameters: key to Hair Growth Score: −: no hair growth observed; ±: hair growth≦10% of the clipped area; +: hair growth 10-40% of the clipped area; ++: hair growth 40-80% of the clipped area; +++: hair growth ≧80% of the clipped area; settings: for Hair Growth Score / animals on which hair growth was observed: topical once daily; for Hair Growth Score: individual animals; for animals on which hair growth was observed: 0.1%, 30 days treatment period, 3 animals per group
Method: (§1) Eight-weeks-old male C3H/HeN mice were used. The hair on the back was clipped by electric clipper so that the hair in the clipped area was removed as much as possible. Three days after the clipping, mice without visible scratches were selected and used in this study. Each group consisted of 3 animals. After group assignment, the groups were housed separately in aluminum cages (3 animals/cage, 180 mm W×300 mm D×130 mm H; Nippon Cage, Ltd., Japan).
(§2) Each test compound was dissolved in 70% (w/w) aqueous ethanol. Each dose formulation of test compound was evenly applied topically once daily (100 μL per mouse) to the clipped dorsal skin area (approximately 2×4 cm), except for Saturday and Sunday, for 30 days. The control group received an equal amount of the vehicle in the same manner.
Macroscopic observations of the hair growth were performed 14, 16, 18, 21, 23, 25, 28 and 30 days after the start of the treatment. Hair growth was scored according to the scale below:
− no hair growth observed
± hair growth≦10% of the clipped area
+ hair growth 10-40% of the clipped area
++ hair growth 40-80% of the clipped area
+++ hair growth ≧80% of the clipped area

C3H/HeN mice [2] = assay: Thickness of grown-up hair (Example 3); settings: 0.1% treated area, hairs collected 31 days after start of treatment of Example 1, n=3
Method: 31 days after the start of the treatment conducted in Example 1, grown-up hairs in the treated area and hairs in the untreated area (i.e. non clipped area) were collected, respectively. Enlarged photomicrographs of the collected hairs were taken. Thickness of the randomly selected each ten hairs were measured and calculated the average.

C3H/HeN mice [3] = assay: Hair growth after topical application to clipped dorsal skin, macroscopic score (Example 2); parameters: key to Hair Growth Score: −: no hair growth observed; ±: hair growth≦10% of the clipped area; +: hair growth 10-40% of the clipped area; ++: hair growth 40-80% of the clipped area; +++: hair growth ≧80% of the clipped area; settings: topical once daily; for Hair Growth Score: 0.1% in 75% aqueous ethanol, individual animals
Method: as §1
as §2, with “Test compound” for “Each test compound”, “in 75%” for “in 70% (w/w)”, “ethanol. The” for “ethanol. Each dose”, “compound (compound E)” for “compound”, “for 23” for “for 30”
Macroscopic observations of the hair growth were performed 14, 16, 18, 21 and 23 days after the start of the treatment. Hair growth was scored according to the scale shown as above. In the 0.1% compound E-treated group, hair growth was observed on 3 out of 3 animals.

[4] = 0.1% in 70% (w/w) aqueous ethanol, day 14 of treatment
[5] = 0.1% in 70% (w/w) aqueous ethanol, day 16 of treatment
[6] = 0.1% in 70% (w/w) aqueous ethanol, day 18 of treatment
[7] = 0.1% in 70% (w/w) aqueous ethanol, day 21 of treatment
[8] = 0.1% in 70% (w/w) aqueous ethanol, day 23 of treatment
[9] = 0.1% in 70% (w/w) aqueous ethanol, day 25 of treatment
[10] = 0.1% in 70% (w/w) aqueous ethanol, day 28 of treatment
[11] = 0.1% in 70% (w/w) aqueous ethanol, day 30 of treatment

SMILES | Hair Growth Score (C3H/HeN mice [1]; [4]) | Hair Growth Score (C3H/HeN mice [1]; [5]) | Hair Growth Score (C3H/HeN mice [1]; [6]) | Hair Growth Score (C3H/HeN mice [1]; [7]) | Hair Growth Score (C3H/HeN mice [1]; [8]) | Hair Growth Score (C3H/HeN mice [1]; [9]) | Hair Growth Score (C3H/HeN mice [1]; [10]) | Hair Growth Score (C3H/HeN mice [1]; [11]) | animals on which hair growth was observed (C3H/HeN mice [1]) | Hair thickness, μm mean ± SE (C3H/HeN mice [2]) [μm] | further results
CCCCCCCC1(CCC2C(O)CC(O)C2C/C=C\CCCC(=O)OC(C)C)OCCCO1 (stereo not drawn) [Compound C, 13,14-dihydro-15,15-trimethylenedioxy-20-ethyl-PGF2α isopropyl ester] | − | − | − (2×) and ± (hair growth≦10% of the clipped area) | − (2×) and ± (hair growth≦10% of the clipped area) | − (2×) and ± (hair growth≦10% of the clipped area) | − (2×) and + (hair growth 10-40% of the clipped area) | − (2×) and + (hair growth 10-40% of the clipped area) | − (2×) and + (hair growth 10-40% of the clipped area) | 1 out of 3 |  | 
CCCCCCCC(CCC1C(O)CC(O)C1C/C=C\CCCC(=O)OC(C)C)(OC)OC (stereo not drawn) [Compound D, 13,14-dihydro-15,15-dimethoxy-20-ethyl-PGF2α isopropyl ester] | − | − (2×) and ± (hair growth≦10% of the clipped area) | − (2×) and ± (hair growth≦10% of the clipped area) | − (2×) and + (hair growth 10-40% of the clipped area) | − (2×) and + (hair growth 10-40% of the clipped area) | − (2×) and + (hair growth 10-40% of the clipped area) | − and ++ (hair growth 40-80% of the clipped area) and ± (hair growth≦10% of the clipped area) | − and ++ (hair growth 40-80% of the clipped area) and ± (hair growth≦10% of the clipped area) | 2 out of 3 |  | 
CC(C)OC(=O)CCC/C=C\CC1C(O)CC(O)C1CCC1(CCc2ccccc2)OCCO1 (stereo not drawn) [Compound B, 13,14-dihydro-15,15-ethylenedioxy-17-phenyl-18,19,20-trinor-PGF2α isopropyl ester] | − | − | ± (hair growth≦10% of the clipped area) and − (2×) | ± (hair growth≦10% of the clipped area) | + (hair growth 10-40% of the clipped area) | ++ (hair growth 40-80% of the clipped area); also recorded: + (hair growth 10-40% of the clipped area) | ++ (hair growth 40-80% of the clipped area) | ++ (hair growth 40-80% of the clipped area) |  | 33.3 ± 0.7 | Hair Growth Score (C3H/HeN mice [1]; 0.1% in 70% (w/w) aqueous ethanol, day 30 of treatment, listed as compound B): ++ (hair growth 40-80% of the clipped area)
CCCCCCCC1(CCC2C(O)CC(O)C2C/C=C\CCCC(=O)OCC)OCCO1 (stereo not drawn) [Compound E, 13,14-dihydro-15,15-ethylenedioxy-20-ethyl-PGF2α ethyl ester] |  |  |  |  |  |  |  |  |  |  | Hair Growth Score (C3H/HeN mice [3]; day 14 of treatment): −; Hair Growth Score (C3H/HeN mice [3]; day 16 of treatment): −; Hair Growth Score (C3H/HeN mice [3]; day 18 of treatment): ± (hair growth≦10% of the clipped area) (2×) and −; Hair Growth Score (C3H/HeN mice [3]; day 21 of treatment): ++ (hair growth 40-80% of the clipped area); also recorded: + (hair growth 10-40% of the clipped area); Hair Growth Score (C3H/HeN mice [3]; day 23 of treatment): + (hair growth 10-40% of the clipped area); also recorded: ++ (hair growth 40-80% of the clipped area); animals on which hair growth was observed (C3H/HeN mice [3]; 0.1%, 23 days treatment period, 3 animals per group): 3 out of 3
CCCCCCCC1(CCC2C(O)CC(O)C2C/C=C\CCCC(=O)OC(C)C)OCCO1 (stereo not drawn) [Compound A, 13,14-dihydro-15,15-ethylenedioxy-20-ethyl-PGF2α isopropyl ester] | − | ± (hair growth≦10% of the clipped area) (2×) and − | ± (hair growth≦10% of the clipped area) | + (hair growth 10-40% of the clipped area) | ++ (hair growth 40-80% of the clipped area) | ++ (hair growth 40-80% of the clipped area) | +++ (hair growth ≧80% of the clipped area) | +++ (hair growth ≧80% of the clipped area) |  | 34.1 ± 1.6 | hair growth, dose dependence (C3H/HeN mice [1]; 0.01% and 0.1% treated groups): dose-dependent hair growth; Hair Growth Score (C3H/HeN mice [1]; 0.01% in 70% (w/w) aqueous ethanol, day 14 of treatment): −; Hair Growth Score (C3H/HeN mice [1]; 0.01% in 70% (w/w) aqueous ethanol, day 16 of treatment): −; Hair Growth Score (C3H/HeN mice [1]; 0.01% in 70% (w/w) aqueous ethanol, day 18 of treatment): − (2×) and ± (hair growth≦10% of the clipped area); Hair Growth Score (C3H/HeN mice [1]; 0.01% in 70% (w/w) aqueous ethanol, day 21 of treatment): − (2×) and ± (hair growth≦10% of the clipped area); Hair Growth Score (C3H/HeN mice [1]; 0.01% in 70% (w/w) aqueous ethanol, day 23 of treatment): − (2×) and ± (hair growth≦10% of the clipped area); Hair Growth Score (C3H/HeN mice [1]; 0.01% in 70% (w/w) aqueous ethanol, day 25 of treatment): − and + (hair growth 10-40% of the clipped area) (2×); Hair Growth Score (C3H/HeN mice [1]; 0.01% in 70% (w/w) aqueous ethanol, day 28 of treatment): + (hair growth 10-40% of the clipped area); also recorded: ++ (hair growth 40-80% of the clipped area); Hair Growth Score (C3H/HeN mice [1]; 0.01% in 70% (w/w) aqueous ethanol, day 30 of treatment): + (hair growth 10-40% of the clipped area); also recorded: ++ (hair growth 40-80% of the clipped area)

Reference: patent publication US8686035B2, “Composition and method for promoting hair growth” (R-Tech Ueno, Ltd., priority 2003, dated 2014)
